Experimental data taken from patent US20100099561A1, “HETEROBICYCLIC ALKYLTHIO-BRIDGED ISOXAZOLINES” (E.I. DU PONT DE NEMOURS AND COMPANY, priority 2008, published 2010).

What was measured:
Type in all cases: in vivo
[1] = tested on: barnyardgrass (Echinochloa crus-galli); experiment: Test A preemergence, barnyardgrass; conditions: 0 to 100 scale (0 no effect, 100 complete control)
Summary of the method: (§1)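 In a greenhouse, loam–sand potted species were treated with surfactant-formulated compound, preemergence via directed soil spray and postemergence at 2–10 cm height, one- to two-leaf stage. Response assessed visually at about ten days; 100 means complete control.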

[2] = tested on: large crabgrass (Digitaria sanguinalis); experiment: Test A preemergence, large crabgrass; conditions: 0 to 100 scale (0 no effect, 100 complete control)
Summary of the method: as §1

[3] = tested on: giant foxtail (Setaria faberi); experiment: Test A preemergence, giant foxtail; conditions: 0 to 100 scale (0 no effect, 100 complete control)
Summary of the method: as §1

[4] = tested on: morningglory (Ipomoea spp.); experiment: Test A preemergence, morningglory; conditions: 0 to 100 scale (0 no effect, 100 complete control)
Summary of the method: as §1

[5] = tested on: pigweed (Amaranthus retroflexus); experiment: Test A preemergence, pigweed; conditions: 0 to 100 scale (0 no effect, 100 complete control)
Summary of the method: as §1

[6] = tested on: velvetleaf (Abutilon theophrasti); experiment: Test A preemergence, velvetleaf; conditions: 0 to 100 scale (0 no effect, 100 complete control)
Summary of the method: as §1

[7] = tested on: wheat (Triticum aestivum); experiment: Test A preemergence, wheat; conditions: 0 to 100 scale (0 no effect, 100 complete control)
Summary of the method: as §1

corn (Zea mays) [8] = experiment: Test A preemergence, corn; conditions: 0 to 100 scale (0 no effect, 100 complete control)
Summary of the method: as §1

[9] = tested on: barnyardgrass (Echinochloa crus-galli); experiment: Test A postemergence, barnyardgrass; conditions: 0 to 100 scale (0 no effect, 100 complete control)
Summary of the method: as §1

[10] = tested on: large crabgrass (Digitaria sanguinalis); experiment: Test A postemergence, large crabgrass; conditions: 0 to 100 scale (0 no effect, 100 complete control)
Summary of the method: as §1

[11] = tested on: giant foxtail (Setaria faberi); experiment: Test A postemergence, giant foxtail; conditions: 0 to 100 scale (0 no effect, 100 complete control)
Summary of the method: as §1

[12] = tested on: morningglory (Ipomoea spp.); experiment: Test A postemergence, morningglory; conditions: 0 to 100 scale (0 no effect, 100 complete control)
Summary of the method: as §1

[13] = tested on: pigweed (Amaranthus retroflexus); experiment: Test A postemergence, pigweed; conditions: 0 to 100 scale (0 no effect, 100 complete control)
Summary of the method: as §1

[14] = tested on: velvetleaf (Abutilon theophrasti); experiment: Test A postemergence, velvetleaf; conditions: 0 to 100 scale (0 no effect, 100 complete control)
Summary of the method: as §1

[15] = tested on: wheat (Triticum aestivum); experiment: Test A postemergence, wheat; conditions: 0 to 100 scale (0 no effect, 100 complete control)
Summary of the method: as §1

corn (Zea mays) [16] = experiment: Test A postemergence, corn; conditions: 0 to 100 scale (0 no effect, 100 complete control)
Summary of the method: as §1

rice (Oryza sativa) = experiment: Test B flooded paddy test, rice; conditions: Flood, scale 0 to 100
Summary of the method: (§2)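 Compounds were added directly to paddy water over 2-leaf-stage plants in pots flooded 3 cm above soil, water depth maintained. Visual injury scored against controls after 13 to 15 days in greenhouse, 0 (none) to 100 (complete control); dash indicates no result.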

[17] = tested on: umbrella sedge (Cyperus difformis); experiment: Test B flooded paddy test, umbrella sedge; conditions: Flood, scale 0 to 100
Summary of the method: as §2

[18] = tested on: ducksalad (Heteranthera limosa); experiment: Test B flooded paddy test, ducksalad; conditions: Flood, scale 0 to 100
Summary of the method: as §2

[19] = tested on: barnyardgrass (Echinochloa crus-galli); experiment: Test B flooded paddy test, barnyardgrass; conditions: Flood
Summary of the method: as §2

[20] = 250 g ai/ha, scale 0 to 100 (0 no effect, 100 complete control)

Cc1con2c(=O)c(CS(=O)(=O)C3=NOC(C)(C)C3)c(C(F)(F)F)nc12 [Compound 56]
60: Plant response rating, Crabgrass, Large ([10]; 125 g ai/ha)
90: Plant response rating, Barnyardgrass ([1]; 500 g ai/ha) | Plant response rating, Crabgrass, Large ([2]; 500 g ai/ha) | Plant response rating, Foxtail, Giant ([3]; 500 g ai/ha)
20: Plant response rating, Foxtail, Giant ([3]; 125 g ai/ha) | Plant response rating, Sedge, Umbrella ([17]; 125 g ai/ha)
0: Plant response rating, Barnyardgrass ([1]; 125 g ai/ha) | Plant response rating, Crabgrass, Large ([2]; 125 g ai/ha) | Plant response rating, Morningglory ([4]; 125 g ai/ha) | Plant response rating, Morningglory ([4]; 500 g ai/ha) | Plant response rating, Pigweed ([5]; 125 g ai/ha) | Plant response rating, Pigweed ([5]; 500 g ai/ha) | Plant response rating, Velvetleaf ([6]; 125 g ai/ha) | Plant response rating, Velvetleaf ([6]; 500 g ai/ha) | Plant response rating, Wheat ([7]; 125 g ai/ha) | Plant response rating, Wheat ([7]; 500 g ai/ha) | Plant response rating, Corn (corn (Zea mays) [8]; 125 g ai/ha) | Plant response rating, Corn (corn (Zea mays) [8]; 500 g ai/ha) | Plant response rating, Pigweed ([13]; 125 g ai/ha) | Plant response rating, Velvetleaf ([14]; 125 g ai/ha) | Plant response rating, Velvetleaf ([14]; 500 g ai/ha) | Plant response rating, Wheat ([15]; 125 g ai/ha) | Plant response rating, Wheat ([15]; 500 g ai/ha) | Plant response rating, Corn (corn (Zea mays) [16]; 125 g ai/ha) | Plant response rating, Corn (corn (Zea mays) [16]; 500 g ai/ha) | Plant response rating, Rice (rice (Oryza sativa); 31 g ai/ha) | Plant response rating, Rice (rice (Oryza sativa); 62 g ai/ha) | Plant response rating, Rice (rice (Oryza sativa); 125 g ai/ha) | Plant response rating, Rice (rice (Oryza sativa); 250 g ai/ha) | Plant response rating, Sedge, Umbrella ([17]; 31 g ai/ha) | Plant response rating, Sedge, Umbrella ([17]; 62 g ai/ha) | Plant response rating, Ducksalad ([18]; 31 g ai/ha) | Plant response rating, Ducksalad ([18]; 62 g ai/ha) | Plant response rating, Ducksalad ([18]; 125 g ai/ha) | Plant response rating, Ducksalad ([18]; 250 g ai/ha) | Plant response rating, Barnyardgrass ([19]; 31 g ai/ha, scale 0 to 100) | Plant response rating, Barnyardgrass ([19]; 62 g ai/ha, scale 0 to 100) | Plant response rating, Barnyardgrass ([19]; 125 g ai/ha, scale 0 to 100) | Plant response rating, Barnyardgrass [19, 20]
40: Plant response rating, Foxtail, Giant ([11]; 125 g ai/ha)
70: Plant response rating, Barnyardgrass ([9]; 125 g ai/ha)
10: Plant response rating, Morningglory ([12]; 125 g ai/ha) | Plant response rating, Pigweed ([13]; 500 g ai/ha)
80: Plant response rating, Barnyardgrass ([9]; 500 g ai/ha) | Plant response rating, Crabgrass, Large ([10]; 500 g ai/ha) | Plant response rating, Foxtail, Giant ([11]; 500 g ai/ha)
30: Plant response rating, Morningglory ([12]; 500 g ai/ha) | Plant response rating, Sedge, Umbrella ([17]; 250 g ai/ha)

CCn1c(=O)c(CS(=O)(=O)C2=NOC(C)(C)C2)nc2cccnc21 [Compound 57]
30: Plant response rating, Barnyardgrass ([9]; 500 g ai/ha) | Plant response rating, Foxtail, Giant ([11]; 500 g ai/ha)
40: Plant response rating, Barnyardgrass ([1]; 500 g ai/ha) | Plant response rating, Crabgrass, Large ([2]; 125 g ai/ha) | Plant response rating, Foxtail, Giant ([3]; 500 g ai/ha) | Plant response rating, Crabgrass, Large ([10]; 500 g ai/ha)
0: Plant response rating, Barnyardgrass ([1]; 125 g ai/ha) | Plant response rating, Foxtail, Giant ([3]; 125 g ai/ha) | Plant response rating, Morningglory ([4]; 125 g ai/ha) | Plant response rating, Morningglory ([4]; 500 g ai/ha) | Plant response rating, Pigweed ([5]; 125 g ai/ha) | Plant response rating, Pigweed ([5]; 500 g ai/ha) | Plant response rating, Velvetleaf ([6]; 125 g ai/ha) | Plant response rating, Velvetleaf ([6]; 500 g ai/ha) | Plant response rating, Wheat ([7]; 125 g ai/ha) | Plant response rating, Wheat ([7]; 500 g ai/ha) | Plant response rating, Corn (corn (Zea mays) [8]; 125 g ai/ha) | Plant response rating, Corn (corn (Zea mays) [8]; 500 g ai/ha) | Plant response rating, Barnyardgrass ([9]; 125 g ai/ha) | Plant response rating, Foxtail, Giant ([11]; 125 g ai/ha) | Plant response rating, Morningglory ([12]; 125 g ai/ha) | Plant response rating, Morningglory ([12]; 500 g ai/ha) | Plant response rating, Pigweed ([13]; 125 g ai/ha) | Plant response rating, Pigweed ([13]; 500 g ai/ha) | Plant response rating, Velvetleaf ([14]; 125 g ai/ha) | Plant response rating, Velvetleaf ([14]; 500 g ai/ha) | Plant response rating, Wheat ([15]; 125 g ai/ha) | Plant response rating, Wheat ([15]; 500 g ai/ha) | Plant response rating, Corn (corn (Zea mays) [16]; 125 g ai/ha) | Plant response rating, Corn (corn (Zea mays) [16]; 500 g ai/ha) | Plant response rating, Rice (rice (Oryza sativa); 31 g ai/ha) | Plant response rating, Rice (rice (Oryza sativa); 62 g ai/ha) | Plant response rating, Rice (rice (Oryza sativa); 125 g ai/ha) | Plant response rating, Rice (rice (Oryza sativa); 250 g ai/ha) | Plant response rating, Sedge, Umbrella ([17]; 31 g ai/ha) | Plant response rating, Sedge, Umbrella ([17]; 62 g ai/ha) | Plant response rating, Sedge, Umbrella ([17]; 125 g ai/ha) | Plant response rating, Sedge, Umbrella ([17]; 250 g ai/ha) | Plant response rating, Ducksalad ([18]; 31 g ai/ha) | Plant response rating, Ducksalad ([18]; 62 g ai/ha) | Plant response rating, Ducksalad ([18]; 125 g ai/ha) | Plant response rating, Ducksalad ([18]; 250 g ai/ha) | Plant response rating, Barnyardgrass ([19]; 31 g ai/ha, scale 0 to 100) | Plant response rating, Barnyardgrass ([19]; 62 g ai/ha, scale 0 to 100) | Plant response rating, Barnyardgrass ([19]; 125 g ai/ha, scale 0 to 100) | Plant response rating, Barnyardgrass [19, 20]
10: Plant response rating, Crabgrass, Large ([10]; 125 g ai/ha)
50: Plant response rating, Crabgrass, Large ([2]; 500 g ai/ha)
